Test results: US20220143079A1, “ORAL ADMINISTRATION OF SODIUM CHLORIDE TO PREVENT COMPLICATIONS ASSOCIATED WITH BOWEL CLEANSING WITH STIMULANT LAXATIVES” (SEAFORD PHARMACEUTICALS INC., priority 2019, published 2022)

Test system: colon of patients scheduled for colonoscopy
Assay: Quality of colon cleaning assessed by Boston Scale at colonoscopy
Assay type: in vivo
Settings: within the claimed regimen, result in words
Procedure: A prospective, open-label study involving four patients scheduled for their regular colonoscopy exam was conducted (Canadian Phase Onward Inc., Toronto, Ontario. CA). […] In addition to the standard instructions not to eat food and to drink only clear liquids, the selected patients were instructed to do the following on the day before the colonoscopy was to be performed: 1. at 10:00 AM orally taking three bisacodyl pills (Dulcolax®, Boehringer Ingelheim, Ingelheim am Rhein, Germany) with water (chewing or crushing the pills was prohibited); 2. at 3:00 PM dissolving the contents of a first sachet containing sodium picosulfate/magnesium oxide/citric acid combination ([…]®, Recordati S.p.A, Milan, Italy) with cold water and ingesting the solution after carefully stirring the solution to insure that the sodium picosulfate/magnesium oxide/citric acid combination was dissolved completely; […] […] Upon arrival at the clinic on the day of the colonoscopy, the patient's weight was recorded and blood pressure was taken and recorded and an out-patient colonoscopy was performed on each patient (North York Endoscopy Centre Inc., Toronto, Ontario, CA). The quality of the colon cleaning was assessed using the Boston Scale which is a well-established way of identifying the degree of colon cleanliness.

CC(=O)Oc1ccc(C(c2ccc(OC(C)=O)cc2)c2ccccn2)cc1 [bisacodyl, ρ,ρ-diacetoxy-diphenyl-2-pyridylmethane]
observed cleansing effect of the regimen component: initial expulsion of the bulk of the fecal matter
